Read-outs that look alike come from different tables or passages of the source.
Key:
EC spheroids = assay: In vitro EC spheroid sprouting assay; type: cell-based
From the text: (§1) In angiogenic EC monolayers, CPT1a knock down (KD) reduced EC proliferation by 40% as measured by ^3H thymidine incorporation (see FIG. 2). Furthermore, CPT1a KD EC were found more frequently in the G0/G1 phase of the cell cycle. EC migration on the other hand was not affected as measured by scratch wound assay and modified Boyden chamber even when proliferation was blocked using mitomycin C (see FIG. 3). To study the effect of CPT1a KD on vessel sprouting, an in vitro EC spheroid sprouting assay was employed. In this model, EC are cultured in suspension to form spheroids in hanging drops, embedded in a collagen I matrix and subsequently stimulated with growth factors to allow sprouts to be formed. In this model, a tip cell with filopodia leads the sprout while the stalk cells trail behind and proliferate to elongate the sprout. […] To further investigate this observation, a mosaic spheroid model was employed to assess tip cell competition. Here, 50% WT^RED and 50% WT^GFP cells are mixed and, when the spheroids have sprouted, which one is at the tip is determined. In this model, tip cell position can be determined via migration and/or proliferation. In case of a WT/WT mixture, 50% green and 50% red cells are at the tip. However, when 50% WT^RED cells are mixed with 50% CPT1a^KD/GFP cells, less green cells were present at the tip. This effect was abrogated when spheroids were treated with mitomycin C.

[1] = Palmitate uptake and incorporation in organs; type: in vivo, mice; settings: pups
[2] = Tolerability in etomoxir-treated pups (body weight, heart H&E staining); type: in vivo, mice
[3] = test system: choroidal neovascularization (CNV) in male C57BL/6 mice; assay: Laser-induced choroidal neovascularization (CNV) model; type: in vivo; settings: 35 mg/kg i.p. daily, two weeks, vs vehicle
From the text: The protein extravasation and hemorrhage associated with choroidal neovascularization (CNV) are primary causes of severe vision loss in retinal diseases such as age-related macular degeneration (ARMD). In ARMD the normal barrier function of Bruch's membrane is compromised, and CNV can develop, either under the retinal pigment epithelium (RPE) or photoreceptor outer segments. The choroidal neovascularization model serves as a reliable disease model for macular degeneration. Choroidal neovascularization (CNV) is induced in mice by laser burn. Laser burn (400 mW) is performed with Alcon PUREPOINT® equipment. CNV is measured by investigators masked to treatment. Eyes are enucleated after retrobulbar perfusion with FITC-dextran (HMW) and flat mounted. The CNV area, total lesion area, and their ratio are analyzed using Zeiss Axio Imager Z1 microscope with macros (KS300 image analysis software) on FITC-perfused (200 μL; 25 mg/mL; 10 minutes) flat mounts. The intraocular administration of siRNAs directed against CPT1a or the use of chemical inhibitors against CPT1a, is carried out, prior to or shortly after the induction of the laser burn, in the above-described murine model for age-related macular degeneration. […]

endothelial cells (ECs) = assay: 3H palmitate oxidation assay (fatty acid oxidation, 3H-9,10-palmitic acid tracer); type: cell-based
From the text: (§2) CPT1 enzymes are rate limiting for fatty acid oxidation and, of the three isoforms, CPTla is the most abundant in ECs. To explore the functional relevance of CPT1a in ECs, its expression was compared in quiescent versus angiogenic EC monolayers. Strikingly, CPT1a RNA and protein levels were increased during contact inhibition—an in vitro model of quiescence—when compared to proliferating/migrating ECs. […] To correlate these expression levels to functional relevance, fatty acid oxidation was measured using a ^3H-9,10-palmitic acid tracer. […] To confirm that fatty acid oxidation in ECs is primarily CPT1a driven, its expression was blocked using a shRNA directed against CPT1a. The shRNA sequence used was 5′-[…] […]-3′ (SEQ ID NO:1).
(§3) Even more, using notch signaling as a model of quiescence, the notch-induced increase in FAO was abrogated upon CPT1a KD.

CPT1a = target: T1, CPT1a (Homo sapiens, UniProt P50416); assay: CPT1a protein levels after shRNA knock down in ECs; type: cell-based
T1 construct: of the three isoforms, CPTla is the most abundant in ECs; endogenous in cells; host or cells: endothelial cells (ECs)
T1 sequence (P50416 1-773): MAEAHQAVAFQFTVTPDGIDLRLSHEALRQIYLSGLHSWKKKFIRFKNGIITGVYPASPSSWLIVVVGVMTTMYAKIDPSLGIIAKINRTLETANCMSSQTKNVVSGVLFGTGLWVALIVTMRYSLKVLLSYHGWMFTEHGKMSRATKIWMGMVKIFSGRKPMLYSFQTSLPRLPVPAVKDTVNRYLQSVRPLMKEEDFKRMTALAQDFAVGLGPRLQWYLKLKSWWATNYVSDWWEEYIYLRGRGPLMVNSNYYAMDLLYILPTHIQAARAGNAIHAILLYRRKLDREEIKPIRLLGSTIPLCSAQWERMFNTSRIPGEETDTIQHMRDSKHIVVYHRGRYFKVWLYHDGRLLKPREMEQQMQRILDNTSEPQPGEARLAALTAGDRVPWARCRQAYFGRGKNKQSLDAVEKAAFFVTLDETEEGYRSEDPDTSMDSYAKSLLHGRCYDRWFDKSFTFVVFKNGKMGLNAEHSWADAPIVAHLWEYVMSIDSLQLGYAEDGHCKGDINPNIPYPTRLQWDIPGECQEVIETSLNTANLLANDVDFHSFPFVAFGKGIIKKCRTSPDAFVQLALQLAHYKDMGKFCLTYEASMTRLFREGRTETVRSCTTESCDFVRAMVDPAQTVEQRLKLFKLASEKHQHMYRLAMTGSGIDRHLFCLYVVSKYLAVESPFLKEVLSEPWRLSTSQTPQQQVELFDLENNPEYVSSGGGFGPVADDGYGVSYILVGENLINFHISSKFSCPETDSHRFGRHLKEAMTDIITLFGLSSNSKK
From the text: as §2, §3

angiogenic EC monolayers = assay: 3H thymidine incorporation assay (EC proliferation); type: cell-based
From the text: as §1, with “This effect was abrogated when spheroids were treated with mitomycin C.” left out

ECs [4] = assay: Scratch wound assay and modified Boyden chamber (EC migration); type: cell-based; settings: scratch wound assay, modified Boyden chamber
From the text: as §1, with “This effect was abrogated when spheroids were treated with mitomycin C.” left out

ECs [5] = assay: Energy charge, ATP levels and AMPK phosphorylation in ECs; type: cell-based
From the text: Next, how fatty acid oxidation could exert its proliferation-dependent effects on vessel sprouting was questioned. Through fueling the TCA with […] molecules of acetyl-COA, 1 palmitate can generate much more ATP via oxidative phosphorylation compared to 1 glucose. However, as was shown previously, angiogenic ECs rely primarily on glycolysis for ATP production. Nevertheless, it was desired to rule out that the CPT1a-induced proliferation defect was caused by ATP depletion. […] One would also expect that whenever cells are in ATP distress, they would up-regulate a major ATP-producing pathway. […] Furthermore, no signs of energy distress were observed, as shown by AMPK-p, and no induction of autophagy was observed as measured by LC3.

ECs [6] = assay: Intracellular H2O2 levels in ECs; type: cell-based
From the text: Proliferation requires many building blocks such as protein, RNA, DNA, . . . to allow duplication of one cell into two daughter cells. Up until now, the role of mitochondria in ECs was thought to be for signaling purposes and not so much for biomass production, as ECs are highly glycolytic. […] FAO can fuel the TCA cycle with […] molecules of acetyl COA, thereby providing plenty of intermediates for biomass as well as producing NADPH that can be used for anti-oxidant defense or lipid synthesis. […] However, this increase in ROS could not explain the proliferation defect as no DNA damage checkpoint was activated in these cells as measured by ATM-P, p53 and p21 levels. […] Therefore, it was hypothesized that blocking FAO would reduce TCA intermediates needed for biomass production. Even more, using ^13C palmitate, it was shown that CPT1a KD cells incorporate less 13C label in TCA intermediates and in biomass.

CC(=O)N[C@@H](CS)C(=O)O [NAC]
rescue of reduced sprouting upon CPT1a silencing in quiescent spheroids (EC spheroids; NICD overexpression model of quiescence): did rescue the phenotype

CC(=O)O [acetate]
rescue of reduced sprouting of CPT1a knock down spheroids (EC spheroids; 20 mM supplementation): rescued

CCOC(=O)[C@@]1(CCCCCCOc2ccc(Cl)cc2)CO1 [etomoxir]
14C palmitate uptake in organs [1]: significantly reduced
incorporation of 13C palmitate in TCA intermediates in organs [1]: significantly reduced
defects in the heart (H&E staining) [2]: did not cause any defects in the heart
reduction of neovascularization area [3]: less than 50%
pathological neovascular area (in words) ([3]; p<0.05): reduced the pathological neovascular area

shCPT1a: shRNA directed against CPT1a, SEQ ID NO:1: 5'-CCGGGCCATGAAGCTCTTAGACAAACTCGAGTTTGTCTAAGAGCTTCATGGCTTTTTG-3'
fatty acid oxidation (endothelial cells (ECs)): reduced fatty acid oxidation
fatty acid oxidation (endothelial cells (ECs); listed as shRNA directed against CPT1a): significantly reduced
CPT1a protein levels (CPT1a): nearly undetectable levels
proliferation (in words) (angiogenic EC monolayers): reduced proliferation
reduction of EC proliferation (angiogenic EC monolayers; angiogenic EC monolayers): 40%
EC migration (ECs [4]): no differences in migration
EC migration (ECs [4]; listed as CPT1a KD): not affected
vessel sprouting of EC spheroids (EC spheroids; collagen I matrix, growth factor stimulated): fewer and shorter sprouts
ATP distress (Western blot for AMPK phosphorylation) (ECs [5]): does not show any ATP distress
energy charge (ECs [5]): did not affect
increase in intracellular H2O2 levels (ECs [6]): 40%

— US20160166532A1, “CARNITINE PALMITOYLTRANSFERASE 1 INHIBITORS FOR INHIBITION OF PATHOLOGICAL ANGIOGENESIS” (VIB VZW, priority 2013, published 2016)
